Read-outs that look alike come from different tables or passages of the source. Bounds are passed on as bounds.

The target in test [1] is GST-PPARG-LBD (Homo sapiens (Human), UniProt P37231). Kind of test: Lanthascreen PPARG competitive binding assay (Invitrogen, TR-FRET). The following applies: NA = not active, inc = incomplete curve, read-out: IC50 (nM) Lantha. Put shortly:
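TR-FRET competitive binding of GST-PPARG-LBD with 5 nM Tb-GST-antibody and 5 nM Fluormone Pan-PPAR Green tracer, in TR-FRET buffer C. Compound serially diluted from 10 μM, 2 h dark incubation, in triplicate. Readout is 520/490 nm emission ratio (340 nm excitation), expressed as fold change over 2% DMSO control.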
(TR-FRET usually uses a lanthanide donor and a delayed reading to cut background.)

The target of test [2] is Gal-4-PPAR (human PPAR LBD fused to GAL4 DNA-binding domain) (Homo sapiens (Human), UniProt P37231). The test is described as follows: GAL4-PPARG LBD / UAS-luciferase transactivation assay in HEK 293T cells. The test is classed as cell-based. Particulars: for EC50: GAL4 transactivation, read-out: EC50 (nM) GAL4; for activation at 10 µM: HEK-293T, 18 h, read-out: % transactivation at 10 μM (GAL4).

[3] abbreviates: Lanthascreen competitive binding.
Setting [4] is: HEK 293T cells, NA = not active.

Chain of GST-PPARG-LBD (P37231 238-503): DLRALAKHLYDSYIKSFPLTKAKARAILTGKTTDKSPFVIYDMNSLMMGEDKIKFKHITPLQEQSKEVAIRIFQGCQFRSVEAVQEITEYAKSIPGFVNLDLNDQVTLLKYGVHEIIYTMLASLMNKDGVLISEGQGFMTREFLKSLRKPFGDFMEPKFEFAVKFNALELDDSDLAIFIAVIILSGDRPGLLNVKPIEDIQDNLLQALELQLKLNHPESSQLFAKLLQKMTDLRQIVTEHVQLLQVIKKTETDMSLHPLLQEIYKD
Chain of Gal-4-PPAR (human PPAR LBD fused to GAL4 DNA-binding domain) (P37231 238-503): as above

By IC50 is commonly meant the concentration that inhibits the measured activity by half. By EC50 is commonly meant the midpoint of the concentration-response curve. Turning to `Cc1c(C)n(Cc2ccc(-c3ccccc3C(=O)O)cc2)c2ccc(C(=O)N[C@H](C)c3ccc(C4CC4)nc3)cc12` [Example 264, (R)-4′-((5-((1-(6-cyclopropylpyridin-3-yl)ethyl)carbamoyl)-2,3-dimethyl-1H-indol-1-yl)methyl)-[1,1′-biphenyl]-2-carboxylic acid], in test [1] (setting [3]), the IC50 turned out to be 32 nM. Besides, the EC50 in test [2] (setting [4]) is 1990 nM. Moreover, the activation at 10 µM in test [2] was 35%.

On to `Cc1c(C)n(Cc2ccc(-c3ccccc3C(=O)O)cc2)c2ccc(C(=O)N[C@@H](C)c3cc(C4CC4)ccn3)cc12` [Example 266, (S)-4′-((5-((1-(4-cyclopropylpyridin-2-yl)ethyl)carbamoyl)-2,3-dimethyl-1H-indol-1-yl)methyl)-[1,1′-biphenyl]-2-carboxylic acid], for which the half-inhibitory concentration (IC50) in test [1] (setting [3]) came out at 8 nM. In test [2] (setting [4]), the EC50 was determined as 588 nM. Further, the activation at 10 µM in test [2] came out at 25%.

For the compound `Cc1c(C)n(Cc2ccc(-c3ccccc3C(=O)O)cc2)c2ccc(C(=O)N[C@@H](C)c3ccnc(Br)c3)cc12` [Example 267, (S)-4′-((5-(1-(2-bromopyridin-4-yl)ethylcarbamoyl)-2,3-dimethyl-1H-indol-1-yl)methyl)biphenyl-2-carboxylic acid], in test [1] (setting [3]), the IC50 is 98 nM. Also, in test [2] (setting [4]), the EC50 was found to be 2490 nM. In test [2], the activation at 10 µM is 40%.

`Cc1c(C)n(Cc2ccc(-c3ccccc3C(=O)O)cc2)c2ccc(C(=O)N[C@@H](C)c3ccnc(C4CC4)c3)cc12` [Example 268, (S)-4′-((5-(1-(2-cyclopropylpyridin-4-yl)ethylcarbamoyl)-2,3-dimethyl-1H-indol-1-yl)methyl)biphenyl-2-carboxylic acid]: in test [1] (setting [3]), the IC50 amounted to 352 nM. In addition, the EC50 in test [2] (setting [4]) turned out to be 8970 nM. In test [2], the activation at 10 µM was 20%.

Regarding `Cc1c(C)n(Cc2ccc(-c3ccccc3C(=O)O)cc2)c2ccc(C(=O)N[C@H](C)c3ccnc(Br)c3)cc12` [Example 269, (R)-4′-((5-(1-(2-bromopyridin-4-yl)ethylcarbamoyl)-2,3-dimethyl-1H-indol-1-yl)methyl)biphenyl-2-carboxylic acid], the IC50 in test [1] (setting [3]) amounted to 8 nM. In addition, the EC50 in test [2] (setting [4]) came to 907 nM. Also, in test [2], the activation at 10 µM came out at 40%.

Take `Cc1c(C)n(Cc2ccc(-c3ccccc3C(=O)O)cc2)c2ccc(C(=O)N[C@H](C)c3ccnc(C4CC4)c3)cc12` [Example 270, (R)-4′-((5-(1-(2-cyclopropylpyridin-4-yl)ethylcarbamoyl)-2,3-dimethyl-1H-indol-1-yl)methyl)biphenyl-2-carboxylic acid]: the IC50 in test [1] (setting [3]) was found to be 15 nM. Further, in test [2] (setting [4]), the EC50 turned out to be 686 nM. Also, the activation at 10 µM in test [2] is 40%.

Turning to `Cc1c(C)n(Cc2ccc(-c3ccccc3C(=O)O)cc2)c2ccc(C(=O)N[C@H](C)c3cccc(Br)n3)cc12` [Example 271, (R)-4′-((5-(1-(6-bromopyridin-2-yl)ethylcarbamoyl)-2,3-dimethyl-1H-indol-1-yl)methyl)biphenyl-2-carboxylic acid], the IC50 in test [1] (setting [3]) was 2 nM. In addition, in test [2] (setting [4]), the EC50 was 52 nM. Besides, the activation at 10 µM in test [2] is 20%.

Consider `Cc1c(C)n(Cc2ccc(-c3ccccc3C(=O)O)cc2)c2ccc(C(=O)NC(C)c3cccc(C4CC4)n3)cc12` (stereo not drawn) [Example 272, 4′-((5-(1-(6-cyclopropylpyridin-2-yl)ethylcarbamoyl)-2,3-dimethyl-1H-indol-1-yl)methyl)biphenyl-2-carboxylic acid], for which the IC50 in test [1] (setting [3]) was under 1 nM. Besides, in test [2] (setting [4]), the EC50 was 2 nM. Moreover, the activation at 10 µM in test [2] is 20%.

Take `Cc1c(C)n(Cc2ccc(-c3ccccc3C(=O)O)cc2)c2ccc(C(=O)N[C@@H](C)c3cccc(Br)n3)cc12` [Example 273, (S)-4′-((5-(1-(6-bromopyridin-2-yl)ethylcarbamoyl)-2,3-dimethyl-1H-indol-1-yl)methyl)biphenyl-2-carboxylic acid]: the IC50 in test [1] (Lanthascreen PPARG competitive binding) is 15 nM. Besides, in test [2], the EC50 was 294 nM and the activation at 10 µM stood at 30%.

The record behind these values is patent publication US8957093B2, “N-biphenylmethylindole modulators of PPARG” (The Scripps Research Institute, priority 2011, dated 2015).
